Earlier results as cited in patent US20140147549A1, “CARBOHYDRATE BAR” (NESTEC S.A., priority 2008, published 2014).

Settings: previous research data, single carbohydrate source alone

O=C(CO)[C@@H](O)[C@H](O)[C@H](O)CO [fructose]
peak exogenous carbohydrate oxidation, single carbohydrate source: ~0.4 g/min
